Five molecules from US20090088380A1, “GHRH ANALOGS AND THERAPEUTIC USES THEREOF” (priority 2007, published 2009) can be followed below.

For data set [1], the target named is T1, hGHRH(1-44)-NH2 binding sites in rat anterior pituitary (Rattus norvegicus, UniProt Q02644).
T1 construct: from tissue; host or cells: anterior pituitary of 2-month old male Sprague Dawley rats
T1 sequence (Q02644 23-423 isoform Q02644-2 limits assumed): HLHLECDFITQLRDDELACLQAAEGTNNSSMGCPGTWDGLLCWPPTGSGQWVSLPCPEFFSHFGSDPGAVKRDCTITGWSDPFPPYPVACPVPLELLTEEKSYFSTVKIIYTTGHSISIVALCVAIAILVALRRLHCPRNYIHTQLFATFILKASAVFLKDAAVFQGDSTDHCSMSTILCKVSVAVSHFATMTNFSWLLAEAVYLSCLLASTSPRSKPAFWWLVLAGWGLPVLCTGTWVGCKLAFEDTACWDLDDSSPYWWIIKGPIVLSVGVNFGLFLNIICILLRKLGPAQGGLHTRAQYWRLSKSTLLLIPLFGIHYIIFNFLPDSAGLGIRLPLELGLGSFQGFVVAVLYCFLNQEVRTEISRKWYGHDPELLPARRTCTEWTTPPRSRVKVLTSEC
Description: Relative binding affinity in rat anterior pituitary preparations, [125I-Tyr10]hGHRH(1-44)-NH2 radioligand. As to conditions: values compared to hGHRH(1-29)-NH2. An excerpt:
Initial selection of a candidate from the original 14 polysubstituted GHRH analogs described in the U.S. Pat. No. 5,854,216 was based upon in vitro data on receptor affinity in 2-month old male Sprague Dawley rat anterior pituitary preparations. The embodiments are based on the affinity of selected GHRH analogs for the human GHRH receptor (hGHRH-R) in baby hamster kidney (BHK) cells transfected with hGHRH-R, and on resistance to proteolysis in rat serum, human plasma or human serum. More precisely, the preferred drug candidates were selected, as compared to hGHRH(1-29)-NH2, for: i-their increased relative binding affinity to hGHRH(1-44)-NH2 binding sites in rat anterior pituitary in vitro as well as to hGHRH-R in BHK-expressing cells in vitro; and ii-their relative resistance to proteolysis in vitro.

Data set [2] can be described thus: In vitro proteolysis assay in rat serum. Conditions: for Relative resistance to proteolysis in vitro: compared to hGHRH(1-29)-NH2; for Residual concentration (% of initial concentration): incubation 0 min. The class given is in vitro ADME.
Description: Proteolysis was stopped by adding 800 μl of ice-cold stop buffer (potassium-phosphate buffer, acidified to pH 0.8 with trifluoroacetic acid (TFA) and boiling 5 min (rat serum only). After centrifugation (12000 g, 5 min, 4° C.) (rat serum only), serum-peptide mixtures were passed through a conditioned Sep-Pak C-18 cartridge to extract native GHRH or a GHRH analog residual concentrations from serum proteins. The native GHRH or the analog was eluted in 2 ml of 50% acetonitrile-0.01% TFA/50% 0.01% aqueous TFA. 200 μl of extracted peptide, representing 1 μg of GHRH or analog at time 0, was quantified by analytical HPLC, using one μ-Bondapak C18 column (10 μm particle size, 0.39×15 cm) (rat serum) or two C18 columns in series (human serum and plasma) and a binary solvent system composed of NaClO4 0.01 M, pH 2.5 and acetonitrile. A linear gradient from 30 to 60% acetonitrile over 45 min (rat serum) or 30 to 50% (human serum and plasma) was used. Elution of intact peptide was monitored at 214 nm and residual concentration determined by assessment of peak surface areas.
The target of a further data set is T2, human GHRH receptor (Homo sapiens, UniProt Q02643).
T2 construct: expressed in transfected cells; host or cells: BHK (baby hamster kidney) 570 cells, membrane preparations
T2 sequence (Q02643 23-423): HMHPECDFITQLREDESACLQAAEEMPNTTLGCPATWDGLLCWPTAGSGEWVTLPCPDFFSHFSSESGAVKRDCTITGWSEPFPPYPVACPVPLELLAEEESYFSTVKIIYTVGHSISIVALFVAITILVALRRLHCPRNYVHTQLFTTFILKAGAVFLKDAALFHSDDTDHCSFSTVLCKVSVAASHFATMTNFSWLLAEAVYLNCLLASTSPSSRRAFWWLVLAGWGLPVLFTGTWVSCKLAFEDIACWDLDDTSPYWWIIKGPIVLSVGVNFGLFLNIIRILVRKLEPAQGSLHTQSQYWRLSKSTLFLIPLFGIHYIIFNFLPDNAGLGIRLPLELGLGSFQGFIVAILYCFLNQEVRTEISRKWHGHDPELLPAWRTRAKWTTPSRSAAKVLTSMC
Description: 125I-GHRH competitive binding assay in BHK cell membrane preparations. Conditions: in comparison with hGHRH(1-29)NH2; ratio IC50 hGHRH(1-29)-NH2/IC50 analog. Here is the method:
Non specific binding was determined in presence of 1 μM hGHRH(1-29)NH2. Incubation was carried out at equilibrium (23° C., 60 min) and stopped by centrifugation (12,000 g, 5 min, at 4° C.). The radioactivity content in pellets was determined by gamma counting. The affinity of hGHRH(1-29) NH2 was tested in each experiment to assess the validity of the assay and determine the relative affinity of the analogs.
Values represent the mean±SEM of 3 experiments performed in triplicate for the analogs and the mean±SEM of 2 experiments performed in triplicate for hGHRH(1-44) NH2.
For the binding assay results presented in Tables 8 to 11, values represent the mean±SEM of 8 independent experiments performed in triplicate for the analogs and the mean±SEM of 4 experiments performed in triplicate for hGHRH(1-29)NH2. […] The relative affinity was obtained by taking the ratio IC50 of hGHRH (1-29)-NH2/IC50 analog.

Data set [3] addresses human GHRH receptor (human) (UniProt Q02643). Kind of data set: competition with [125I-Tyr10]hGHRH(1-44)NH2, BHK cell membrane preparations expressing the human GHRH receptor.
For data set [4] the target is unchanged. The data set is described as above. The source holds these as a separate data set.
The target of another data set is rat GHRH receptor (rat) (UniProt Q02644). Kind of data set: competition with [125I-Tyr10]hGHRH(1-44)-NH2, rat anterior pituitary membrane preparations.

Where two headings read alike, the source gives them in different places. Non-standard residues stand in square brackets, D forms with d. Residues, ends and D or L forms follow the SMILES beside them. No end group written: not given here.

For the molecule `CC[C@H](C)[C@H](NC(=O)[C@H](C)NC(=O)[C@H](CC(=O)O)NC(=O)[C@@H](C)NC(=O)[C@@H](N)Cc1ccc(O)cc1)C(=O)N[C@@H](Cc1ccccc1)C(=O)N[C@H](C(=O)N[C@@H](C)C(=O)N[C@@H](CO)C(=O)N[C@@H](Cc1ccc(O)cc1)C(=O)N[C@@H](CCCNC(=N)N)C(=O)N[C@@H](CCCCN)C(=O)N[C@H](C(=O)N[C@@H](CC(C)C)C(=O)N[C@@H](C)C(=O)N[C@@H](CCC(N)=O)C(=O)N[C@@H](CC(C)C)C(=O)N[C@@H](CO)C(=O)N[C@@H](C)C(=O)N[C@@H](CCCNC(=N)N)C(=O)N[C@@H](CCCCN)C(=O)N[C@@H](CCCCN)C(=O)N[C@@H](CC(C)C)C(=O)N[C@@H](CCC(N)=O)C(=O)N[C@@H](CC(=O)O)C(=O)N[C@H](C(=O)N[C@@H](CCSC)C(=O)N[C@@H](CO)C(=O)N[C@@H](CCCNC(=N)N)C(N)=O)[C@@H](C)CC)C(C)C)[C@@H](C)O` [GHRH analog #1, [D-Ala^2, Ala^8, Ala^15, Lys^22] hGHRH(1-29)-NH2] (H-Y[dA]DAIFTASYRKVLAQLSARKKLQDIMSR-NH2; N-terminus assumed), the “Relative binding affinity in rat anterior pituitary” value in data set [1] amounted to 13.33 ± 0.31. Moreover, in data set [2], the “Relative resistance to proteolysis in vitro” value (“Relative resistance” below) was found to be 1.87 and the “Residual concentration (% of initial concentration)” value is 100 ± 0 % of initial concentration. Moreover, the “Relative binding affinity (R1) in hGHRH-R BHK-expressing cells” value at human GHRH receptor stood at 499 ± 234.

Regarding `CC[C@H](C)[C@H](NC(=O)[C@H](C)NC(=O)[C@H](CC(=O)O)NC(=O)[C@@H](C)NC(=O)[C@@H](N)Cc1ccc(O)cc1)C(=O)N[C@@H](Cc1ccccc1)C(=O)N[C@H](C(=O)N[C@@H](CC(N)=O)C(=O)N[C@@H](CO)C(=O)N[C@H](Cc1ccc(O)cc1)C(=O)N[C@@H](CCCNC(=N)N)C(=O)N[C@@H](CCCCN)C(=O)N[C@H](C(=O)N[C@@H](CC(C)C)C(=O)NCC(=O)N[C@@H](CCC(N)=O)C(=O)N[C@@H](CC(C)C)C(=O)N[C@@H](CO)C(=O)N[C@@H](C)C(=O)N[C@@H](CCCNC(=N)N)C(=O)N[C@@H](CCCCN)C(=O)N[C@@H](CCCCN)C(=O)N[C@@H](CC(C)C)C(=O)N[C@@H](CCC(N)=O)C(=O)N[C@@H](CC(=O)O)C(=O)N[C@H](C(=O)N[C@@H](CCSC)C(=O)N[C@@H](CO)C(=O)N[C@@H](CCCNC(=N)N)C(N)=O)[C@@H](C)CC)C(C)C)[C@@H](C)O` [GHRH analog #3, [D-Ala^2, D-Tyr^10, Lys^22] hGHRH(1-29)-NH2] (H-Y[dA]DAIFTNS[dY]RKVLGQLSARKKLQDIMSR-NH2; N-terminus assumed), in data set [1], the “Relative binding affinity in rat anterior pituitary” value was 4.90 ± 2.70. In data set [2], the “Relative resistance” value came out at 2.25 and the “Residual concentration (% of initial concentration)” value is 100 ± 0 % of initial concentration. In addition, the “Relative binding affinity (R1) in hGHRH-R BHK-expressing cells” value at human GHRH receptor is 239 ± 55.

For the molecule `CC[C@H](C)[C@H](NC(=O)[C@H](C)NC(=O)[C@H](CC(=O)O)NC(=O)[C@@H](C)NC(=O)[C@@H](N)Cc1ccc(O)cc1)C(=O)N[C@@H](Cc1ccccc1)C(=O)N[C@H](C(=O)N[C@@H](C)C(=O)N[C@@H](CO)C(=O)N[C@H](Cc1ccc(O)cc1)C(=O)N[C@@H](CCCNC(=N)N)C(=O)N[C@@H](CCCCN)C(=O)N[C@H](C(=O)N[C@@H](CC(C)C)C(=O)N[C@@H](C)C(=O)N[C@@H](CCC(N)=O)C(=O)N[C@@H](CC(C)C)C(=O)N[C@@H](CO)C(=O)N[C@@H](C)C(=O)N[C@@H](CCCNC(=N)N)C(=O)N[C@H](CCCCN)C(=O)N[C@@H](CCCCN)C(=O)N[C@@H](CC(C)C)C(=O)N[C@@H](CCC(N)=O)C(=O)N[C@@H](CC(=O)O)C(=O)N[C@H](C(=O)N[C@@H](CCSC)C(=O)N[C@@H](CO)C(=O)N[C@@H](CCCNC(=N)N)C(N)=O)[C@@H](C)CC)C(C)C)[C@@H](C)O` [GHRH analog #4, [D-Ala^2, Ala^8, D-Tyr^10, Ala^15, D-Lys^21, Lys^22] hGHRH(1-29)-NH2] (H-Y[dA]DAIFTAS[dY]RKVLAQLSAR[dK]KLQDIMSR-NH2; N-terminus assumed), the “Relative binding affinity in rat anterior pituitary” value in data set [1] was 5.00 ± 0.91. Besides, in data set [2], the “Relative resistance” value was found to be 6.06 and the “Residual concentration (% of initial concentration)” value is given as 100 ± 0 % of initial concentration. At human GHRH receptor, the “Relative binding affinity (R1) in hGHRH-R BHK-expressing cells” value came out at 0.05 ± 0.01.

With “YADAIFTAAYRKVLAQLSARKALQDIMSR-NH2 [GHRH analog #2, [Ala^8, Ala^9, Ala^15, Ala^22] hGHRH(1-29)-NH2]”, the “Relative binding affinity in rat anterior pituitary” value in data set [1] was 7.74 ± 3.49. Also, in data set [2], the “Relative resistance” value came out at 1.81 and the “Residual concentration (% of initial concentration)” value is 100 ± 0 % of initial concentration. For the same molecule, the “Relative binding affinity (R1) in hGHRH-R BHK-expressing cells” value on human GHRH receptor stood at 3.70 ± 0.52.

On to “[D-Ala2, D-Tyr10, D-Ala15, Lys22] hGHRH(1-29)-NH2 (peptide)”, for which the results for the IC50 in data set [3] and in data set [4] were 6 pM and 1.2 pM, respectively. The Relative binding affinity (R1) in comparison with hGHRH(1-29)NH2 in data set [3] (scale: ratio IC50 of hGHRH) is 939. For the same molecule, in the data set with rat GHRH receptor (rat), the Relative binding affinity in rat anterior pituitary (relative to hGHRH(1-29)-NH2) is 1.04.
